Data taken from patent US20080234188A1, “Antimicrobial Peptides” (The Hospital for Sick Children, priority 2001, published 2008).
In brackets after ≈: the same amount, converted by molar mass. Where a SMILES comes first, the peptide text is derived from it. [ ]: non-standard residue; d: D form.

Key:
[1] = tested on: Corynebacterium xerosis (C875); assay type: cell-based
Method in brief: (§1)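 Broth microdilution in Mueller Hinton Broth, inoculum 2−7×10^5 CFU/ml. Peptides serially doubled in 0.01% acetic acid, 0.2% BSA and added at 10× final concentration. Incubation 37° C for 18-24 h, rechecked at 40-48 h; growth read visually and at 600 nm.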

[2] = tested on: Staphylococcus epidermidis (C621); assay type: cell-based; conditions: C621
Method in brief: as §1

E. coli DC2 = experiment: Assay of antibacterial activity (MIC), E. coli DC2; assay type: cell-based, Escherichia coli; conditions: Table 5A
Method in brief: (§2)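 MIC values come from Mueller Hinton broth microdilution at 37° C (18-24 h, recheck 40-48 h), inoculum 2−7×10^5 CFU/ml. Endpoint taken from visual inspection plus OD600.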

E. coli UB1005 = assay type: cell-based, Escherichia coli; conditions: UB1005
Method in brief: as §2

E. coli ATCC25922 = assay type: cell-based
From the text: (§3) The bacterial strains used were E. coli C498, E. coli C500, Escherichia coli UB1005 and its antibiotic supersusceptible derivative DC2 (22); a clinical isolate of Staphylococcus epidermidis (C621); coryneform bacterial strain Corynebacterium xerosis (C875); and E. coli ATCC 25922, Staphylococcus aureus ATCC 25923, Enterococcus faecalis ATCC 29212, Bacillus subtilis ATCC 6633 and Pseudomonas aeruginosa ATCC 27853, all from American Type Culture Collection.
(§4) Peptide antibacterial activity was assessed by the method of R. Hancock et al. (Wu & Hancock (1999), J. Biol. Chem., v. 274, pp. 29-35). Test strains of bacteria from Mueller Hinton agar (MHA) plates were inoculated into 5 ml Mueller Hinton Broth (MHB) in tubes and grown overnight at 37° C. on a shaker (180 rpm). Serial dilutions of test peptides (at 10 times the required test concentrations) were made in 0.01% acetic acid, 0.2% BSA, in polypropylene or coated glass tubes as follows: the test peptide was (a) dissolved in distilled water at 20 times the required maximum concentration (enough final volume for all tests to be performed on a given day); (b) diluted into an equal volume of 0.02% acetic acid, 0.4% BSA to give 10 times the required maximum concentration; (c) serial doubling dilutions were performed in 0.01% acetic acid, 0.2% BSA to provide serial dilutions of peptides at 10 times the required test concentrations, e.g., 640, 320, 160, . . . 2.5 μg/ml. (No deleterious effects of long-term storage of peptides in these media have been detected). Overnight bacterial cultures were diluted in MHB to give 2−7×10^5 colony forming units/ml. Bacterial suspension (100 μl) was dispensed in each well; controls without bacteria were maintained in parallel. To each well was added 11 μl of 10× test peptide and plates were incubated at 37° C. for 18-24 hours, and checked again at 40-48 hours. Plates were read visually and at 600 nm in a microplate reader (Molecular Devices).
(§5) A further number of the peptides of the invention were tested for antimicrobial activity against a range of Gram-positive and Gram-negative bacteria by the assay described immediately before Example 1.

P. aeruginosa ATCC27853 = assay type: cell-based, Pseudomonas aeruginosa
From the text: as §3, §4, §5

Human RBC = assay type: cell-based
Procedure: (§6) Erythrocytes from heparinized rabbit or human blood were washed three times with phosphate-buffered saline (PBS; 5 mM phosphate buffer, 0.14 M saline, pH 7.3), and centrifuged at 1000×g for 15 min at 4° C. The erythrocytes were diluted with PBS to 4% (v/v). Dilutions of the peptides in PBS were plated in 100 μl volumes in microtitre plates (Costar 3790, polypropylene) together with 100μl of the erythrocyte suspension. PBS was used as control and 100% lysis was determined in 0.1% Triton X-100. The plates were incubated at 37° C. for 1 h and then centrifuged at 1000×g for 5 min. 100 μl aliquots of the supernatant were transferred to microtitre plates (Nunc, polystyrene), and the release of hemoglobin was monitored by measurement of the absorbance at 540 nm in a microplate reader. The results are shown in Table 6, for peptide concentrations of […]. With only one or two exceptions, little or no hemolysis was seen.

Rabbit RBC = assay type: cell-based
Procedure: as §6

S. aureus ATCC25923 = assay type: cell-based, Staphylococcus aureus
From the text: as §3, §4, §5

E. faecalis ATCC29212 = assay type: cell-based, Enterococcus faecalis
From the text: as §3, §4, §5

B. subtilis ATCC6633 = assay type: cell-based, Bacillus subtilis
From the text: as §3, §4, §5

| Rabbit RBC (% lysis) 50 μM (Rabbit RBC) [% lysis] | Rabbit RBC (% lysis) 200 μM (Rabbit RBC) [% lysis] | MIC S. aureus ATCC25923 (S. aureus ATCC25923) [µM] | MIC E. faecalis ATCC29212 (E. faecalis ATCC29212) [µM] | MIC B. subtilis ATCC6633 (B. subtilis ATCC6633) [µM] | Structure (SMILES) | MIC C. xerosis C875 [1] [µM] | MIC S. epidermidis C621 [2] [µM] | MIC E. coli DC2 (E. coli DC2) [µM] | MIC E. coli UB1005 (E. coli UB1005) [µM] | MIC E. coli ATCC25922 (E. coli ATCC25922) [µM] | MIC P. aeruginosa ATCC27853 (P. aeruginosa ATCC27853) [µM] | Human RBC (% lysis) 50 μM (Human RBC) [% lysis] | Human RBC (% lysis) 200 μM (Human RBC) [% lysis] |
| --- | --- | --- | --- | --- | --- | --- | --- | --- | --- | --- | --- | --- | --- |
| 0 | 2 | 32 (≈ 58.7 µg/mL) | >32 | 4 (≈ 7.34 µg/mL) | C[C@@H](NC(=O)[C@@H](C)NC(=O)[C@@H](Cc1ccccc1)NC(=O)[C@@H](C)NC(=O)[C@@H](C)NC(=O)[C@@H](Cc1c[nH]c2ccccc12)NC(=O)[C@@H](C)NC(=O)[C@@H](C)NC(=O)[C@@H](Cc1ccccc1)NC(=O)[C@@H](C)NC(=O)[C@@H](C)NC(=O)[C@@H](CCCCN)NC(=O)[C@@H](CCCCN)NC(=O)[C@@H](CCCCN)NC(=O)[C@@H](CCCCN)NC(=O)[C@@H](CCCCN)NC(=O)[C@H](N)CCCCN)C(N)=O [A11-D F17-6K, kkkkkkaafaawaafaa-NH2] (H-[dK][dK][dK][dK][dK][dK][dA][dA][dF][dA][dA][dW][dA][dA][dF][dA][dA]-NH2) | – | 4 (≈ 7.34 µg/mL) | – | 0.5 (≈ 0.918 µg/mL) | 2 (≈ 3.67 µg/mL) | 8 (≈ 14.7 µg/mL) | 0 | 0 |
| 0 | 2 | 32 (≈ 61.2 µg/mL) | >32 | 4 (≈ 7.65 µg/mL) | C[C@H](NC(=O)[C@H](C)NC(=O)[C@H](Cc1c[nH]c2ccccc12)NC(=O)[C@H](C)NC(=O)[C@H](C)NC(=O)[C@H](Cc1c[nH]c2ccccc12)NC(=O)[C@H](C)NC(=O)[C@H](C)NC(=O)[C@H](Cc1c[nH]c2ccccc12)NC(=O)[C@H](C)NC(=O)[C@H](C)NC(=O)[C@H](CCCCN)NC(=O)[C@H](CCCCN)NC(=O)[C@H](CCCCN)NC(=O)[C@H](CCCCN)NC(=O)[C@H](CCCCN)NC(=O)[C@@H](N)CCCCN)C(N)=O [Peptide W17-6K, KKKKKKAAWAAWAAWAA-NH2] (H-KKKKKKAAWAAWAAWAA-NH2; N-terminus assumed) | – | 8 (≈ 15.3 µg/mL) | – | 1 (≈ 1.91 µg/mL) | 8 (≈ 15.3 µg/mL) | 8 (≈ 15.3 µg/mL) | 0 | 0 |
| 0 | 2 | >32 | >32 | 16 (≈ 28.7 µg/mL) | C[C@H](NC(=O)[C@H](C)NC(=O)[C@H](Cc1ccccc1)NC(=O)[C@H](C)NC(=O)[C@H](C)NC(=O)[C@H](Cc1ccccc1)NC(=O)[C@H](C)NC(=O)[C@H](C)NC(=O)[C@H](Cc1ccccc1)NC(=O)[C@H](C)NC(=O)[C@H](C)NC(=O)[C@H](CCCCN)NC(=O)[C@H](CCCCN)NC(=O)[C@H](CCCCN)NC(=O)[C@H](CCCCN)NC(=O)[C@H](CCCCN)NC(=O)[C@@H](N)CCCCN)C(N)=O [Peptide 3F17-6K, KKKKKKAAFAAFAAFAA-NH2] (H-KKKKKKAAFAAFAAFAA-NH2; N-terminus assumed) | – | 8 (≈ 14.4 µg/mL) | – | 2 (≈ 3.59 µg/mL) | 16 (≈ 28.7 µg/mL) | 16 (≈ 28.7 µg/mL) | 0 | 0 |
| – | – | – | – | – | C[C@H](NC(=O)[C@H](C)NC(=O)[C@H](C)NC(=O)[C@H](Cc1ccccc1)NC(=O)[C@H](C)NC(=O)[C@H](C)NC(=O)[C@H](Cc1c[nH]c2ccccc12)NC(=O)[C@H](C)NC(=O)[C@H](C)NC(=O)[C@H](Cc1ccccc1)NC(=O)[C@H](C)NC(=O)[C@H](C)NC(=O)[C@H](C)NC(=O)[C@H](C)NC(=O)[C@H](C)NC(=O)[C@H](Cc1ccccc1)NC(=O)[C@H](C)NC(=O)[C@H](C)NC(=O)[C@H](C)NC(=O)[C@H](CCCCN)NC(=O)[C@H](CCCCN)NC(=O)[C@H](CCCCN)NC(=O)[C@H](CCCCN)NC(=O)[C@H](CCCCN)NC(=O)[C@@H](N)CCCCN)C(N)=O [Peptide F25-6K] (H-KKKKKKAAAFAAAAAFAAWAAFAAA-NH2; N-terminus assumed) | 1 (≈ 2.48 µg/mL) | 4 (≈ 9.92 µg/mL) | 8 (≈ 19.8 µg/mL) | 16 (≈ 39.7 µg/mL) | 16 (≈ 39.7 µg/mL) | 32 (≈ 79.4 µg/mL) | 11 | 17 |

| Structure (SMILES) | Rabbit RBC (% lysis) 50 μM (Rabbit RBC) [% lysis] | Rabbit RBC (% lysis) 200 μM (Rabbit RBC) [% lysis] | MIC S. aureus ATCC25923 (S. aureus ATCC25923) [µM] | MIC E. faecalis ATCC29212 (E. faecalis ATCC29212) [µM] | MIC B. subtilis ATCC6633 (B. subtilis ATCC6633) [µM] | MIC C. xerosis C875 [1] [µM] | MIC S. epidermidis C621 [2] [µM] | MIC E. coli DC2 (E. coli DC2) [µM] | MIC E. coli UB1005 (E. coli UB1005) [µM] | MIC E. coli ATCC25922 (E. coli ATCC25922) [µM] | MIC P. aeruginosa ATCC27853 (P. aeruginosa ATCC27853) [µM] | Human RBC (% lysis) 50 μM (Human RBC) [% lysis] | Human RBC (% lysis) 200 μM (Human RBC) [% lysis] |
| --- | --- | --- | --- | --- | --- | --- | --- | --- | --- | --- | --- | --- | --- |
| C[C@H](NC(=O)[C@H](C)NC(=O)[C@H](Cc1ccccc1)NC(=O)[C@H](C)NC(=O)[C@H](C)NC(=O)[C@H](Cc1c[nH]c2ccccc12)NC(=O)[C@H](C)NC(=O)[C@H](C)NC(=O)[C@H](Cc1ccccc1)NC(=O)[C@H](C)NC(=O)[C@H](C)NC(=O)[C@H](CCCNC(=N)N)NC(=O)[C@H](CCCNC(=N)N)NC(=O)[C@H](CCCNC(=N)N)NC(=O)[C@H](CCCNC(=N)N)NC(=O)[C@H](CCCNC(=N)N)NC(=O)[C@@H](N)CCCNC(=N)N)C(N)=O [Peptide F17-6R, RRRRRRAAFAAWAAFAA-NH2] (H-RRRRRRAAFAAWAAFAA-NH2; N-terminus assumed) | 1 | 3 | – | – | – | 0.5 (≈ 1 µg/mL) | 4 (≈ 8.01 µg/mL) | 0.5 (≈ 1 µg/mL) | 1 (≈ 2 µg/mL) | 4 (≈ 8.01 µg/mL) | 8 (≈ 16 µg/mL) | 14 | 26 |
| C[C@H](NC(=O)[C@H](C)NC(=O)[C@H](C)NC(=O)[C@H](Cc1c[nH]c2ccccc12)NC(=O)[C@H](Cc1ccccc1)NC(=O)[C@H](C)NC(=O)[C@H](C)NC(=O)[C@H](C)NC(=O)[C@H](C)NC(=O)[C@H](CCCCN)NC(=O)[C@H](CCCCN)NC(=O)[C@H](CCCCN)NC(=O)[C@H](CCCCN)NC(=O)[C@H](CCCCN)NC(=O)[C@@H](N)CCCCN)C(=O)N[C@@H](C)C(=O)N[C@@H](Cc1ccccc1)C(N)=O [KAFW, KKKKKKAAAAFWAAAAF-NH2] (H-KKKKKKAAAAFWAAAAF-NH2; N-terminus assumed) | 0 | 1 | – | – | – | 0.5 (≈ 0.918 µg/mL) | 8 (≈ 14.7 µg/mL) | 0.5 (≈ 0.918 µg/mL) | 2 (≈ 3.67 µg/mL) | 16 (≈ 29.4 µg/mL) | 16 (≈ 29.4 µg/mL) | 0 | 0 |
